# Laboratory results from patent US12152038B2, “Vasopressin receptor antagonists and products and methods related thereto” (Neumora Therapeutics, Inc., priority 2017, dated 2024).
# Where two headings read alike, the source gives them in different places.
# Legend:
# [1] = biological target: T1, human Arginine Vasopressin Receptor V2 (AVPR2) (Homo sapiens, UniProt P30518); assay: Vasopressin V2 receptor antagonist assay (TR-FRET cAMP, 1321N1 cells); assay type: cell-based
# T1 construct: host or cells: 1321N1 (cAMPZen V2 assay ready frozen cells)
# T1 sequence (P30518 whole entry): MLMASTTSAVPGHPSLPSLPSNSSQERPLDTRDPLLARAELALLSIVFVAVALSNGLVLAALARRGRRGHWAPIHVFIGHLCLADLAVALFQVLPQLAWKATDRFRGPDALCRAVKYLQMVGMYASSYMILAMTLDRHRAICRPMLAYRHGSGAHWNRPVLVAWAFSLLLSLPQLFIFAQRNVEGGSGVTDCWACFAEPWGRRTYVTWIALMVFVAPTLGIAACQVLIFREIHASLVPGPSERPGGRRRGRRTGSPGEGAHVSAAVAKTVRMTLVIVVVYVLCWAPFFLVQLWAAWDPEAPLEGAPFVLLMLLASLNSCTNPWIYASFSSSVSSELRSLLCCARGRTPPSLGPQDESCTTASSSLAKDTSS
# Procedure: The purpose of the assay was to determine the inhibitory effect of synthesized compounds on the Vasopressin receptor 2. The assay was performed in commercially available 1321N1 cells expressing the human Arginine Vasopressin Receptor V2 (AVPR2) (Perkin Elmer #ES-363-CF). Arginine Vasopressin (AVP) evokes an increase in intracellular cAMP in these cells which is measured in a TR-FRET assay using a Europium cAMP tracer and ULight labelled antibody reagents contained in a LANCE Ultra cAMP kit (Perkin Elmer #TRF0263). Increases in cAMP in the assay result in a reduction in TR-FRET as the cAMP produced by the stimulated cells competes with the Eu-cAMP tracer for binding sites on the ULight labelled antibody. Test compounds were assessed for their ability to affect the magnitude of the response to AVP, with antagonists showing a concentration-dependent decrease in the AVP-mediated reduction in TR-FRET signal.
# cAMPZen V2 assay ready cells were thawed at 37° C. and resuspended directly from frozen in 9 ml growth medium consisting of DMEM supplemented with 10% v/v fetal bovine serum, 1× non-essential amino acids, and 1 mM sodium pyruvate. Cells were spun at 1000 rpm for 3 minutes and the supernatant was carefully removed and discarded. The pellet was resuspended in 5 ml stimulation buffer and the cell density determined using the Vi-Cell automated cell counter. The cell suspension was diluted to a 0.2×10^6/ml suspension ready for plating. To all wells of a white 384-well Optiplate (Perkin Elmer #6007299) 5 μL of cells in stimulation buffer were dispensed (1,000 cells per well). Stimulation buffer consisted of HBSS (+Ca/+Mg) supplemented with 5 mM HEPES, 0.1% BSA stabiliser and 0.5 mM IBMX.
# At the start of each assay day the potency of AVP was assessed and an EC80 concentration determined for subsequent compound profiling. Assays were performed by first an addition of 2.5 μl of control or test compound at 4× final concentration in stimulation buffer followed by 2.5 μl of AVP at 4× final concentration in stimulation buffer. After a 1 hour reaction, detection reagents were added by first an addition of 5 μl EU-cAMP tracer, followed by 5 μl ULight-anti-cAMP both diluted as per the manufacturer's instructions. After a one hour incubation, plates were ready to be read (signals then remained stable for up to 24 hours). Changes in time resolved fluorescence were monitored with excitation via a laser (337 nm) measuring both 615 nm and 665 nm emission wavelengths. […] For compound profiling, test compounds were dispensed by the Labcyte Echo (10-point curve, 1:3 dilutions) in a target 0.1 μl volume then diluted 750-fold in stimulation buffer containing 3% DMSO prior to addition to the cells. At the end of the incubation period, 2.5 μl of AVP in stimulation buffer was added at the previously determined EC80 concentration.
# In-plate controls for the assay included a Tolvaptan concentration-response curve as the reference V2 antagonist and an AVP concentration-response curve to confirm the reproducibility of the EC80 used for the compound challenge.
# [2] = biological target: T2, MDR1 (P-glycoprotein) (Homo sapiens, UniProt P08183); assay: MDR1-MDCK permeability and efflux assay (Papp, efflux ratio, effective efflux ratio); assay type: in vitro ADME; details: dog; for Papp A→B at 1 h, 10 μM: pH 7.4, read-out: Papp AB MDR1
# T2 construct: host or cells: MDCK (MDR1-MDCK; wild-type MDCK as comparator)
# T2 sequence (P08183 whole entry): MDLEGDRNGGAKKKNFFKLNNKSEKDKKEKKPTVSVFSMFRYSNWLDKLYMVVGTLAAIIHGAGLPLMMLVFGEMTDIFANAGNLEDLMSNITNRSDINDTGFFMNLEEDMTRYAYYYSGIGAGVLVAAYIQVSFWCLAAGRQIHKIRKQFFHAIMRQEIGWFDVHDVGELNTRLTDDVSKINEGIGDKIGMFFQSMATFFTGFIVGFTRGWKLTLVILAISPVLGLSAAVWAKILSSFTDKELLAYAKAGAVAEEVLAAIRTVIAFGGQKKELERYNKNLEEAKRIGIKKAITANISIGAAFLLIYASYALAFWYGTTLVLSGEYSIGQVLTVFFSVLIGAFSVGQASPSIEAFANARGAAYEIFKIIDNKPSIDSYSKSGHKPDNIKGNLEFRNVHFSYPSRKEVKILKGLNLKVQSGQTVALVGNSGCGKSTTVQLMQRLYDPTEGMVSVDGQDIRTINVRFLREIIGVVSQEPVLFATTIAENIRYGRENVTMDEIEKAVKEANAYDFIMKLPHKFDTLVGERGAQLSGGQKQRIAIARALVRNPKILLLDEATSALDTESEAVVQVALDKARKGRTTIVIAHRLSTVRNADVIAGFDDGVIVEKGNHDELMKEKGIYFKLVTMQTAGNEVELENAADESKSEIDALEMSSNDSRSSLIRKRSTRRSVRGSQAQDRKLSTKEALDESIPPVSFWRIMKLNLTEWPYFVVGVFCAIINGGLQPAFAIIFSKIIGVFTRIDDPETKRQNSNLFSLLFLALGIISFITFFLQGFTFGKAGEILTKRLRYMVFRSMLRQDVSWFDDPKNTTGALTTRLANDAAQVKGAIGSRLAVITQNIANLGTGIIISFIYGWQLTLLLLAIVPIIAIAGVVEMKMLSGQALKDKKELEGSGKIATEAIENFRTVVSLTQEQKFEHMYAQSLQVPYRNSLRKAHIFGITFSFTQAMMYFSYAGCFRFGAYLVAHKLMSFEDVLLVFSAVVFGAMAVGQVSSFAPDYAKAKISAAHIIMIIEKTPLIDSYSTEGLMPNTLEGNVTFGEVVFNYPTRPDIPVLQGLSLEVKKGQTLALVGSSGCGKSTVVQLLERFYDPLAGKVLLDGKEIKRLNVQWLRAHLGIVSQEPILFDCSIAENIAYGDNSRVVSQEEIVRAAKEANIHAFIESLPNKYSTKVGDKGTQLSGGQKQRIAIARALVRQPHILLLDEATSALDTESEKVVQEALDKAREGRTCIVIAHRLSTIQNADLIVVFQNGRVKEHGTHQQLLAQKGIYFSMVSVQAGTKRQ
# Outline: (§1)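 Confluent WT or MDR1-MDCK monolayers (3-day culture) dosed with 10 μM compound, 0.1% DMSO, in HBSS/25 mM HEPES pH 7.4, A>B and B>A, 1 h at 37 °C; LC-MS/MS quantitation. Papp from acceptor/donor ratio; efflux ratio = Papp B>A/A>B; EER = ER(MDR1)/ER(WT).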
# [3] = Wild-type MDCK permeability and efflux assay (Papp, efflux ratio); assay type: in vitro ADME; details: dog, pH 7.4, wild-type MDCK cells; for efflux ratio at 1 h, 10 μM: Papp B>A/Papp A>B, read-out: ER WT (Efflux Ratio)
# Outline: as §1
# [4] = MDCK-MDR1, pH 7.4, ER(MDR1-MDCK)/ER(wild-type MDCK), read-out: EER (Effective Efflux Ratio)
# [5] = MDCK-MDR1, pH 7.4, Papp B>A/Papp A>B, MDR1-MDCK cells, read-out: ER MDR1 (Efflux Ratio)
SMILES,IC50 [1],"efflux ratio at 1 h, 10 μM [2, 4]","efflux ratio at 1 h, 10 μM [2, 5]","Papp A→B at 1 h, 10 μM ([2]; MDR1-MDCK cells)","Papp A→B at 1 h, 10 μM [3]","efflux ratio at 1 h, 10 μM [3]"
CC1COc2cc(F)c(F)cc2N1C(=O)N1CC2(C1)CN(c1ccc(F)cn1)C2 (stereo not drawn) [19-5],< 100 nM,1 to 2,1 to 2,> 20 ×10⁻⁶ cm/s,> 20 ×10⁻⁶ cm/s,< 1
Cc1nccnc1N1CC2(CN(C(=O)N3c4ccc(Cl)cc4OCC3C)C2)C1 (stereo not drawn) [20-10],500 to 1000 nM,< 1,< 1,> 20 ×10⁻⁶ cm/s,> 20 ×10⁻⁶ cm/s,< 1
"CC1COc2cc(Cl)ccc2N1C(=O)N1CC2(C1)CN(c1cccnn1)C2 (single isomer, unassigned) [9-1-B]",≥ 1000 nM,2 to 3,> 3,> 20 ×10⁻⁶ cm/s,> 20 ×10⁻⁶ cm/s,1 to 2
"Cc1ccnc(N2CC3(CN(C(=O)N4c5ccc(F)cc5OCC4C)C3)C2)c1 (single isomer, unassigned) [20-4-B]",< 100 nM,1 to 2,< 1,> 20 ×10⁻⁶ cm/s,> 20 ×10⁻⁶ cm/s,< 1
COc1ccnc(N2CC3(CN(C(=O)N4c5ccc(Cl)cc5OCC4C)C3)C2)c1 (stereo not drawn) [20-8],100 to 500 nM,< 1,< 1,> 20 ×10⁻⁶ cm/s,> 20 ×10⁻⁶ cm/s,< 1
"COc1ccnc(N2CC3(CN(C(=O)N4c5ccc(Cl)cc5OCC4C)C3)C2)c1 (single isomer, unassigned) [20-8-B]",< 100 nM,< 1,< 1,> 20 ×10⁻⁶ cm/s,> 20 ×10⁻⁶ cm/s,< 1
O=C(N1CC2(C1)CN(c1ccc(F)cn1)C2)N1CCc2cc(Cl)ccc21 [8-11],≥ 1000 nM,< 1,< 1,> 20 ×10⁻⁶ cm/s,> 20 ×10⁻⁶ cm/s,< 1
Cc1ccnc(N2CC3(CN(C(=O)N4c5ccc(Cl)cc5OCC4C)C3)C2)c1 (stereo not drawn) [20-11],< 100 nM,< 1,< 1,> 20 ×10⁻⁶ cm/s,> 20 ×10⁻⁶ cm/s,< 1
"CC1COc2cc(F)ccc2N1C(=O)N1CC2(C1)CN(c1noc3ccccc13)C2 (single isomer, unassigned) [4-3-B]",500 to 1000 nM,< 1,< 1,> 20 ×10⁻⁶ cm/s,> 20 ×10⁻⁶ cm/s,< 1
Cc1cncc(N2CC3(CN(C(=O)N4c5ccc(F)cc5OCC4C)C3)C2)n1 (stereo not drawn) [20-2],< 100 nM,1 to 2,1 to 2,> 20 ×10⁻⁶ cm/s,> 20 ×10⁻⁶ cm/s,1 to 2
CC1COc2cc(F)ccc2N1C(=O)N1CC2(C1)CN(c1noc3ccccc13)C2 (stereo not drawn) [4-3],≥ 1000 nM,< 1,< 1,> 20 ×10⁻⁶ cm/s,> 20 ×10⁻⁶ cm/s,< 1
"CC1COc2cc(Cl)ccc2N1C(=O)N1CC2(C1)CN(c1noc3cccnc13)C2 (single isomer, unassigned) [18-3-B]",100 to 500 nM,< 1,< 1,> 20 ×10⁻⁶ cm/s,> 20 ×10⁻⁶ cm/s,< 1
"O=C(N1CC2(C1)CN(c1ccc(F)cn1)C2)N1CCC(O)c2cc(Cl)ccc21 (single isomer, unassigned) [13-1-A]",≥ 1000 nM,> 3,> 3,> 20 ×10⁻⁶ cm/s,> 20 ×10⁻⁶ cm/s,< 1
"O=C(N1CC2(C1)CN(c1ccccn1)C2)N1CCC(O)c2cc(Cl)ccc21 (single isomer, unassigned) [13-2-B]",≥ 1000 nM,> 3,> 3,> 20 ×10⁻⁶ cm/s,> 20 ×10⁻⁶ cm/s,1 to 2
"Cc1ccnc(N2CC3(CN(C(=O)N4c5ccc(Cl)cc5OCC4C)C3)C2)n1 (single isomer, unassigned) [20-12-B]",< 100 nM,1 to 2,1 to 2,> 20 ×10⁻⁶ cm/s,> 20 ×10⁻⁶ cm/s,< 1
O=C(N1CC2(C1)CN(c1ccc(F)cn1)C2)N1CCOc2cc(Cl)ccc21 [9-7],≥ 1000 nM,1 to 2,< 1,> 20 ×10⁻⁶ cm/s,> 20 ×10⁻⁶ cm/s,< 1
"CC1COc2cc(Cl)c(F)cc2N1C(=O)N1CC2(C1)CN(c1ncccn1)C2 (single isomer, unassigned) [19-2-B]",100 to 500 nM,< 1,1 to 2,> 20 ×10⁻⁶ cm/s,> 20 ×10⁻⁶ cm/s,1 to 2
O=C(N1CC2(C1)CN(c1ccccn1)C2)N1CCOCc2cc(Cl)ccc21 [8-12],≥ 1000 nM,2 to 3,2 to 3,> 20 ×10⁻⁶ cm/s,> 20 ×10⁻⁶ cm/s,< 1
CC1COc2cc(Cl)c(F)cc2N1C(=O)N1CC2(C1)CN(c1cccnn1)C2 (stereo not drawn) [19-4],≥ 1000 nM,< 1,< 1,> 20 ×10⁻⁶ cm/s,> 20 ×10⁻⁶ cm/s,< 1
